Source: patent US20100041700A1, “Substituted 1-(Azolin-2-yl)-Amino-1,2-Heterocyclyl-Ethane Compounds For Combating Pests” (BASF SE, priority 2006, published 2010)

Experiments:
[1] = tested on: Cowpea Aphid (Aphis craccivora); assay: Cowpea aphid (Aphis craccivora) spray test on potted cowpea plants; assay type: in vivo; settings: in comparison with untreated controls, population reduction recorded after 24, 72 and 120 hours, read-out: mortality against cowpea aphid
Experimental: B.1. Cowpea Aphid (Aphis craccivora)
The active compounds were formulated in 50:50 acetone:water. Potted cowpea plants colonized with 100-150 aphids of various stages were sprayed after the pest population has been recorded. Population reduction was recorded after 24, 72, and 120 hours.

[2] = tested on: Green Peach Aphid (Myzus persicae); assay: Green peach aphid (Myzus persicae) leaf dip test on pepper plants; assay type: in vivo; settings: foliar, 120 h, in comparison with untreated controls, determined after 5 days, read-out: mortality against green-peach aphid
Experimental: B.2. Green Peach Aphid (Myzus persicae)
Pepper plants in the 2nd leaf-pair stage (variety ‘California Wonder’) were infested with approximately 40 laboratory-reared aphids by placing infested leaf sections on top of the test plants. The leaf sections were removed after 24 hours. The leaves of the intact plants were dipped into gradient solutions of the test compound. Aphid mortality on the treated plants, relative to mortality on check plants, was determined after 5 days.

Structure (SMILES) | mortality at 300 ppm [1] | mortality at 300 ppm [2]
Cc1ccsc1C(Cc1ccncc1)NC1=NCCS1 (stereo not drawn) [C.I.9] | > 80% | –
Brc1ccsc1C(Cc1ccncc1)NC1=NCCS1 (stereo not drawn) [C.I.10] | – | > 80%
c1ccc(CC(NC2=NCCS2)c2cccs2)nc1 (stereo not drawn) [C.I.12] | > 80% | –
